Numbered stars: 1 amine (or outer) side, 2 acyl side, 3 side chain; on linkers, the order of the positions; unused ones are H or OH. Bridge positions count the residues as written; N and C are the ends. Square brackets hold non-standard residues; d marks the D form. Peptide text beside a SMILES is read from it. * marks the point of attachment. pTerphenylCO(4''-OnC5H11) = CCCCCOc1ccc(-c2ccc(-c3ccc(C(=O)*)cc3)cc2)cc1; Orn(4R-OH,5R-OH) = O=C([C@H](C[C@@H](O)[C@@H](O)N[*:3])N[*:1])[*:2]; hTyr(3S-OH,4S-OH) = N[C@H](C(=O)O)[C@H](O)[C@@H](O)c1ccc(O)cc1; Pro(3S-OH,4S-Me) = C[C@H]1CN[C@H](C(=O)O)[C@H]1O; Hyp = O=C(O)[C@@H]1C[C@@H](O)CN1
Experiments:
clinical [1] = conditions: human, in vivo, iv, Vdss
clinical [2] = conditions: human, in vivo, iv, CL
clinical [3] = conditions: human, in vivo, iv
clinical [4] = conditions: human, in vivo, iv, t1/2

| SMILES | Vd (clinical [1]) [L/kg] | clearance (clinical [2]) [mL/min/kg] | MRT (clinical [3]) [h] | half-life (clinical [4]) [h] |
| --- | --- | --- | --- | --- |
| CCS(=O)(=O)CCn1c([N+](=O)[O-])cnc1C [TINIDAZOLE] | 0.59 | 0.6 | 16 | 13 |
| COc1ccccc1N1CCN(CCCNc2cc(=O)n(C)c(=O)n2C)CC1 | 0.75 | 3.1 | 4 | 3.5 |
| CN(C)C(=O)Oc1cccc([N+](C)(C)C)c1.[Br-] [NEOSTIGMINE BROMIDE] | 0.74 | 9.2 | 1.3 | 1.3 |
| CN1C(=O)CC[C@H]1c1cccnc1 [COTININE] | 1.1 | 0.89 | 21 | 17 |
| CCN1C[C@H]2CN(C)C[C@H](C1)C2OC(=O)c1ccc(Cl)cc1 (some centres not stated) | 9 | 17 | 8.8 | 8.6 |
| OC(Cn1cncn1)(Cn1cncn1)c1ccc(F)cc1F [FLUCONAZOLE] | 0.75 | 0.31 | 40 | 30 |
| Cn1cc(NC(=O)Nc2cc(C(=O)Nc3cc(C(=O)Nc4ccc5cc(S(=O)(=O)O)cc(S(=O)(=O)O)c5c4)n(C)c3)n(C)c2)cc1C(=O)Nc1cc(C(=O)Nc2ccc3cc(S(=O)(=O)O)cc(S(=O)(=O)O)c3c2)n(C)c1 | 0.27 | 0.0047 | 960 | 730 |
| CCC#CC[C@H](C)[C@H](O)C#C[C@@H]1[C@H]2C/C(=C/COCC(=O)O)C[C@H]2C[C@H]1O [CICAPROST] | 0.08 | 3.8 | 0.35 | 1.1 |
| CN1Cc2c(N)cccc2C(c2ccccc2)C1 (configuration not stated) [NOMIFENSINE] | 6 | 22 | 4.5 | 6.5 |
| O=C1c2ccccc2S(=O)(=O)N1CCCCNC[C@H]1CCc2ccccc2O1 [REPINOTAN] | 0.21 | 2.2 | 1.6 | 1.2 |
| CCCCCC/C=C\CCCCCCCCCC(=O)N[C@H]1[C@H](OC[C@H]2O[C@H](OP(=O)(O)O)[C@H](NC(=O)CC(=O)CCCCCCCCCCC)[C@@H](OCCCCCCCCCC)[C@@H]2O)O[C@H](COC)[C@@H](OP(=O)(O)O)[C@@H]1OCC[C@@H](CCCCCCC)OC [ERITORAN] | 0.048 | 0.013 | 62 | 51 |
| CCCCN1CCCCC1C(=O)Nc1c(C)cccc1C (configuration not stated) [BUPIVACAINE] | 0.84 | 4.3 | 3.3 | 3.1 |
| N[C@@H]1CN(c2c(F)cc3c(=O)c(C(=O)O)cn([C@@H]4C[C@@H]4F)c3c2Cl)CC12CC2 [SITAFLOXACIN ANHYDROUS] | 1.5 | 3.7 | 6.7 | 6.6 |
| Cc1onc(-c2c(Cl)cccc2Cl)c1C(=O)N[C@@H]1C(=O)N2[C@@H]1SC(C)(C)[C@@H]2C(=O)O [DICLOXACILLIN] | 0.11 | 2 | 0.92 | 0.88 |
| CCCCCN(CCCOC)C(=O)[C@@H](CCC(=O)O)NC(=O)c1ccc(Cl)c(Cl)c1 [DEXLOXIGLUMIDE] | 0.18 | 3.7 | 0.79 | 1.2 |
| CCNCC(O)c1cccc(O)c1 (configuration not stated) [ETILEFRINE] | 2.1 | 14 | 2.5 | 2.2 |
| CN1[C@@H]2CC[C@H]1C[C@@H](OC(=O)c1c[nH]c3ccccc13)C2 [TROPISETRON] | 9.7 | 26 | 6.3 | 5.6 |
| CN1CCN(CCCN2c3ccccc3Sc3ccc(Cl)cc32)CC1 [PROCHLORPERAZINE] | 22 | 16 | 23 | 9 |
| Cc1ccccc1N1C(=O)c2cc(S(N)(=O)=O)c(Cl)cc2NC1C (configuration not stated) [METOLAZONE] | 1.6 | 1.4 | 19 | 20 |

| SMILES | Vd (clinical [1]) [L/kg] | clearance (clinical [2]) [mL/min/kg] | MRT (clinical [3]) [h] | half-life (clinical [4]) [h] |
| --- | --- | --- | --- | --- |
| C#C[C@]1(OS(=O)(=O)O)CC[C@H]2[C@@H]3CCc4cc(O)ccc4[C@H]3CC[C@@]21C | 0.61 | 1.3 | 7.8 | 9.3 |
| CN(C)CCC=C1c2ccccc2CCc2ccccc21 [AMITRIPTYLINE] | 8.7 | 6.1 | 24 | 17 |
| CCOc1cc(CC(=O)N[C@@H](CC(C)C)c2ccccc2N2CCCCC2)ccc1C(=O)O [REPAGLINIDE] | 0.35 | 7.8 | 0.75 | 0.87 |
| CN(C)C(=O)Oc1cc(OC(=O)N(C)C)cc(C(O)CNC(C)(C)C)c1 (configuration not stated) [BAMBUTEROL] | 1.6 | 18 | 1.4 | 2.6 |
| CC(=O)NC[C@H]1CN(c2ccc(N3CCOCC3)c(F)c2)C(=O)O1 [LINEZOLID] | 0.58 | 1.8 | 5.4 | 4.5 |
| Cn1c(=O)c2c(ncn2CC(O)CO)n(C)c1=O (configuration not stated) [DYPHYLLINE] | 0.42 | 4.8 | 1.5 | 1.7 |
| Cc1ccsc1C(=CCCN1CCC[C@@H](C(=O)O)C1)c1sccc1C [TIAGABINE] | 1.1 | 1.6 | 12 | 10 |
| C[C@H](N[C@@H](CCc1ccccc1)C(=O)O)C(=O)N1Cc2ccccc2C[C@H]1C(=O)O | 0.13 | 0.93 | 2.3 | 2.3 |
| Oc1ccc2c3c1O[C@H]1[C@@H](O)CC[C@@]4(O)[C@@H](C2)N(CC2CCC2)CC[C@]314 [NALBUPHINE] | 4.6 | 22 | 3.5 | 3.7 |
| CN(C)CCN(Cc1cccs1)c1ccccn1 | 3.3 | 28 | 2 | 1.6 |
| CCCCCOc1ccc(-c2ccc(-c3ccc(C(=O)N[C@H]4C[C@@H](O)[C@@H](O)NC(=O)[C@@H]5[C@@H](O)[C@@H](C)CN5C(=O)[C@H]([C@@H](C)O)NC(=O)[C@H]([C@H](O)[C@@H](O)c5ccc(O)cc5)NC(=O)[C@@H]5C[C@@H](O)CN5C(=O)[C@H]([C@@H](C)O)NC4=O)cc3)cc2)cc1 [ANIDULAFUNGIN] ({pTerphenylCO(4''-OnC5H11)}-[Orn(4R-OH,5R-OH)]T[Hyp][hTyr(3S-OH,4S-OH)]T[Pro(3S-OH,4S-Me)]; lactam 1-C) | 0.57 | 0.21 | 45 | 40 |
| c1ccc(C2(c3ccccc3)CC2C2=NCCN2)cc1 (configuration not stated) [CIFENLINE] | 4.1 | 8.6 | 7.8 | 7.3 |
| Cc1ccc(O)c([C@H](CCN(C(C)C)C(C)C)c2ccccc2)c1 [TOLTERODINE] | 1.5 | 8.4 | 2.98 | 2.4 |
| CN(C)[C@@H]1C(O)=C(C(N)=O)C(=O)[C@@]2(O)C(O)=C3C(=O)c4c(O)ccc(Cl)c4[C@@](C)(O)[C@H]3C[C@@H]12 [CHLORTETRACYCLINE] | 0.9 | 2 | 7.4 | 7 |
| N[C@@H](CC(=O)N1CCn2c(nnc2C(F)(F)F)C1)Cc1cc(F)c(F)cc1F [SITAGLIPTIN] | 2.8 | 6 | 7.78 | 12 |
| CN(C)C(=O)Oc1ccc[n+](C)c1 [PYRIDOSTIGMINE] | 1.1 | 9.6 | 1.8 | 1.5 |
| C=CCN1CCCC1CNC(=O)c1cc2[nH]nnc2cc1OC (configuration not stated) [ALIZAPRIDE] | 1.6 | 6.6 | 4 | 2.8 |
| Nc1nc(=O)[nH]cc1F [FLUCYTOSINE] | 0.68 | 2 | 5.7 | 4.2 |
| O=C1CN=C(c2ccccn2)c2cc(Br)ccc2N1 [BROMAZEPAM] | 0.85 | 0.51 | 28 | 21 |

Reference: ChEMBL document CHEMBL1614632, “Trend analysis of a database of intravenous pharmacokinetic parameters in humans for 670 drug compounds” (Drug Metab Dispos, 2008)
